Experimental data reported in patent US20260325540A1 (priority 2023, published 2026).
pIC50: −log10 of the molar value.

Experiments:
SARS-CoV-2 3CLpro = SARS-CoV-2 3CLpro (Severe acute respiratory syndrome coronavirus 2, UniProt P0DTD1); experiment: FRET based protease assay, SARS-CoV-2 3CL; assay type: biochemical, SARS-CoV-2 (strain BetaCoV/Wuhan/WIV04/2019)
MERS-CoV 3CLpro = MERS-CoV 3CLpro (Middle East respiratory syndrome-related coronavirus, UniProt K9N638); experiment: biochemical; conditions: MERS IC50, 75 nM MERS-CoV 3CLpro, 6 μM peptide 1 substrate, 25° C., 1.5 hrs, pH 7.5
Chain of MERS-CoV 3CLpro (K9N638 3248-3553 limits assumed): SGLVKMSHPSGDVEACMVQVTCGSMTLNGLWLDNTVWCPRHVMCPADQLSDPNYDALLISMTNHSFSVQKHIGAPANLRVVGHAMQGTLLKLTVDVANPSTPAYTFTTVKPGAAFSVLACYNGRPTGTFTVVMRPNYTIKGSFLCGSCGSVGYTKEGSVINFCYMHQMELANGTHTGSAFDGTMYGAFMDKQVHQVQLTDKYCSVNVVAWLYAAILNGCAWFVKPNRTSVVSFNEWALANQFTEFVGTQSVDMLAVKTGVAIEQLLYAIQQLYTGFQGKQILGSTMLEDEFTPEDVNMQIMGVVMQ

Structure (SMILES) | pIC50 (SARS-CoV-2 3CLpro) | pIC50 (MERS-CoV 3CLpro)
CC(C)(C)C(=O)N[C@H]1CC/C=C/[C@H]2CNC(=O)[C@H]2C[C@@H](C#N)NC(=O)[C@@H]2[C@@H]3[C@H](CN2C1=O)C3(C)C [Example 61] | > 7.00 | > 7.00
CC1(C)[C@@H]2[C@H]3C(=O)N[C@H](C#N)C[C@@H]4C(=O)NC[C@@H]4CCCC[C@H](NC(=O)C4CC(F)(F)C4)C(=O)N3C[C@@H]21 [Example 62] | > 7.00 | > 7.00
CC(C)(C)C(=O)N[C@H]1C/C=C/[C@H]2CNC(=O)[C@H]2C[C@@H](C#N)NC(=O)[C@@H]2[C@@H]3[C@H](CN2C1=O)C3(C)C [Example 63] | > 7.00 | 6.00 to 7.00
CC(C)(C)C(=O)N[C@H]1C/C=C\[C@H]2CNC(=O)[C@H]2C[C@@H](C#N)NC(=O)[C@@H]2[C@@H]3[C@H](CN2C1=O)C3(C)C [Example 64] | < 4.70 | < 4.70
CC(C)(C)C(=O)N[C@H]1CCCC[C@H]2CCNC(=O)[C@@H]2C[C@@H](C#N)NC(=O)[C@@H]2[C@@H]3[C@H](CN2C1=O)C3(C)C [Example 65] | > 7.00 | 6.00 to 7.00
CC(C)(C)C(=O)N[C@H]1CCC[C@H]2CCNC(=O)[C@@H]2C[C@@H](C#N)NC(=O)[C@@H]2[C@@H]3[C@H](CN2C1=O)C3(C)C [Example 66] | > 7.00 | 6.00 to 7.00
CC(C)(C)C(=O)N[C@H]1CCCC[C@H]2CNC(=O)[C@@H]2C[C@@H](C#N)NC(=O)[C@@H]2[C@@H]3[C@H](CN2C1=O)C3(C)C [Example 67] | 6.00 to 7.00 | 6.00 to 7.00
CC1(C)[C@@H]2[C@H]3C(=O)N[C@H](C#N)C[C@@H]4C(=O)NC[C@@H]4CCCC[C@H](NC(=O)C4CCC(F)(F)CC4)C(=O)N3C[C@@H]21 [Example 68] | > 7.00 | > 7.00
CC(C)(C)C(=O)N[C@H]1CCCC[C@H]2CCNC(=O)[C@H]2C[C@@H](C#N)NC(=O)[C@@H]2[C@@H]3[C@H](CN2C1=O)C3(C)C [Example 69] | > 7.00 | 6.00 to 7.00
CC(C)(C)C(=O)N[C@H]1CCCC[C@H]2CNC(=O)[C@H]2C[C@@H](C#N)NC(=O)[C@@H]2[C@H]3CCC[C@H]3CN2C1=O [Example 70] | > 7.00 | 6.00 to 7.00
CC(C)(C)C(=O)N[C@H]1CCCC[C@H]2CNC(=O)[C@H]2C[C@@H](C#N)NC(=O)[C@@H]2CCCCN2C1=O [Example 71] | 4.70 to 6.00 | 4.70 to 6.00
CC(C)(C)OC(=O)N[C@H]1CCCC[C@H]2CNC(=O)[C@H]2C[C@@H](C#N)NC(=O)[C@@H]2[C@@H]3[C@H](CN2C1=O)C3(C)C [Example 72] | > 7.00 | > 7.00
CC(C)(C)CC(=O)N[C@H]1CCCC[C@H]2CNC(=O)[C@H]2C[C@@H](C#N)NC(=O)[C@@H]2[C@@H]3[C@H](CN2C1=O)C3(C)C [Example 73] | > 7.00 | > 7.00
CC(C)(C)C(=O)N[C@H]1CCCC[C@H]2CNC(=O)[C@H]2C[C@@H](C#N)NC(=O)[C@@H]2CCCN2C1=O [Example 74] | 4.70 to 6.00 | 4.70 to 6.00
CC1(C)[C@@H]2[C@H]3C(=O)N[C@H](C#N)C[C@@H]4C(=O)NC[C@@H]4CCCC[C@H](NC(=O)OC4CCCC4)C(=O)N3C[C@@H]21 [Example 75] | > 7.00 | > 7.00
CC1(C)[C@@H]2[C@H]3C(=O)N[C@H](C#N)C[C@@H]4C(=O)NC[C@@H]4CCCC[C@H](NC(=O)C4CCC4)C(=O)N3C[C@@H]21 [Example 76] | > 7.00 | 6.00 to 7.00
CC1(C)[C@@H]2[C@H]3C(=O)N[C@H](C#N)C[C@@H]4C(=O)NC[C@@H]4CCCC[C@H](NC(=O)C4CCCCC4)C(=O)N3C[C@@H]21 [Example 77] | > 7.00 | > 7.00
CN1C(=O)[C@@H](NC(=O)C(C)(C)C)CCCC[C@H]2CNC(=O)[C@H]2C[C@@H](C#N)NC(=O)[C@@H]1CC(C)(C)C [Example 78] | > 7.00 | 4.70 to 6.00
CC(C)(C)OC(=O)N[C@H]1CCCC[C@H]2CNC(=O)[C@H]2C[C@@H](C#N)NC(=O)[C@@H]2[C@H]3CCC[C@H]3CN2C1=O [Example 79] | > 7.00 | 6.00 to 7.00
CC(C)(C)C(=O)N[C@H]1CCCC[C@H]2CNC(=O)[C@H]2C[C@@H](C#N)NC(=O)[C@H](C2CCCC2)NC1=O [Example 80] | 6.00 to 7.00 | 6.00 to 7.00
CC1(C)[C@@H]2[C@H]3C(=O)N[C@H](C#N)C[C@@H]4C(=O)NC[C@@H]4CCCC[C@H](NC(=O)C4CC5(CCC5)C4)C(=O)N3C[C@@H]21 (stereo partly shown) [Example 81] | > 7.00 | 6.00 to 7.00
CC1(C)[C@@H]2[C@H]3C(=O)N[C@H](C#N)C[C@@H]4C(=O)NC[C@@H]4CCCC[C@H](NC(=O)c4ccc(F)cc4)C(=O)N3C[C@@H]21 [Example 82] | > 7.00 | > 7.00
CC1(C)[C@@H]2[C@H]3C(=O)N[C@H](C#N)C[C@@H]4C(=O)NC[C@@H]4/C=C/CC[C@H](NC(=O)C4CC(F)(F)C4)C(=O)N3C[C@@H]21 [Example 83] | > 7.00 | > 7.00
